The target of test [1] is T1, Cannabinoid receptor 1 (Homo sapiens, UniProt P21554). The test is classed as functional, cell-based, CHO.
Test [2] deals with T2, Cannabinoid receptor 2 (Homo sapiens, UniProt P34972). Kind of test: Antagonist activity against CB2R (unknown origin) CHO cells stably expressing Galpha16 assessed as inhibition of CP55940-induced increase in intracellular calcium level pre-treated 10 mins before CP55940 stimulation by microplate reader based assay relative to […]. It is filed as functional, cell-based.

Test [3] deals with T2, Cannabinoid receptor 2. Kind of test: Antagonist activity against CB2R (unknown origin) CHO cells stably expressing Galpha16 assessed as inhibition of CP55940-induced increase in intracellular calcium level pre-treated 10 mins before CP55940 stimulation by microplate reader based assay. It is filed as functional, cell-based. A general note: Calcium flux is commonly read through the fluorescence of an indicator in the cells.

Test [4] relates to CHO. Description: Selectivity index, ratio of IC50 for CB1R (unknown origin) CHO cells stably expressing Galpha16 to IC50 for CB2R (unknown origin) CHO cells stably expressing Galpha16. The test is classed as cell-based. To be noted: Homo sapiens.
For test [5], the system named is Mus musculus. Kind of test: Reduction in extensive demyelination in white matter of C57BL/6 mouse experimental autoimmune encephalomyelitis model of multiple sclerosis at 10 mg/kg, po administered once daily starting from day 3 after immunization until end of experiment and measured on day 21 after immunization by Luxol fast blue staining. It is filed as functional, organism-based.

Test [6] concerns the target T1, Cannabinoid receptor 1. Description: Agonist activity at CB1R (unknown origin) CHO cells stably expressing Galpha16 assessed as increase in intracellular calcium level by microplate reader based assay. The test is classed as functional, cell-based.
The test system of test [7] is Mus musculus. Description: Reduction in leukocyte infiltration in spinal cord of C57BL/6 mouse experimental autoimmune encephalomyelitis model of multiple sclerosis at 10 mg/kg, po administered once daily starting from day 3 after immunization until end of experiment and measured on day 21 after immunization by hematoxylin and eosin staining. It is filed as functional, organism-based.

Test [8] has as its system Mus musculus. Kind of test: Reduction in experimental autoimmune encephalomyelitis clinical scores in C57BL/6 mouse experimental autoimmune encephalomyelitis model of multiple sclerosis at 10 mg/kg, po administered once daily starting from day 3 after immunization until end of experiment and measured on day 21 after immunization. It is filed as functional, organism-based.

The target in test [9] is T2, Cannabinoid receptor 2. Kind of test: Agonist activity at CB2R (unknown origin) CHO cells stably expressing Galpha16 assessed as increase in intracellular calcium level by microplate reader based assay. The test is classed as functional, cell-based. Particulars: read-out: EC50.
Test [10] concerns CHO. Description: Selectivity index, ratio of EC50 for CB1R (unknown origin) CHO cells stably expressing Galpha16 to EC50 for CB2R (unknown origin) CHO cells stably expressing Galpha16. To be noted: Homo sapiens. It is filed as cell-based.
Test [11] has as its target T2, Cannabinoid receptor 2. Kind of test: Agonist activity at CB2R (unknown origin) CHO cells stably expressing Galpha16 assessed as increase in intracellular calcium level by microplate reader based assay relative to CP55940. The test is classed as functional, cell-based.

The source made the active and inactive calls. The calls are words filed in the database; no cut-off is given here. Bounds are passed on as bounds.

T2 sequence (P34972 whole entry): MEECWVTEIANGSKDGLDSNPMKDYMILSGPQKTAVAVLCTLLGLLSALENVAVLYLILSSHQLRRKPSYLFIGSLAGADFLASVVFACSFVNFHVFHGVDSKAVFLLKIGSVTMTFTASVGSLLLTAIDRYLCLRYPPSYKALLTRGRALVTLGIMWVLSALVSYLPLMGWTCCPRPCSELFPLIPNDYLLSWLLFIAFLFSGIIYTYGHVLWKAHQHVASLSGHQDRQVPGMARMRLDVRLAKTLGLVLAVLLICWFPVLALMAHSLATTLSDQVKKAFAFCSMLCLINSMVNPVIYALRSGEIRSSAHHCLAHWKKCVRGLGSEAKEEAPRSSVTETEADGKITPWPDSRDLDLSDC
T1 sequence (P21554 whole entry): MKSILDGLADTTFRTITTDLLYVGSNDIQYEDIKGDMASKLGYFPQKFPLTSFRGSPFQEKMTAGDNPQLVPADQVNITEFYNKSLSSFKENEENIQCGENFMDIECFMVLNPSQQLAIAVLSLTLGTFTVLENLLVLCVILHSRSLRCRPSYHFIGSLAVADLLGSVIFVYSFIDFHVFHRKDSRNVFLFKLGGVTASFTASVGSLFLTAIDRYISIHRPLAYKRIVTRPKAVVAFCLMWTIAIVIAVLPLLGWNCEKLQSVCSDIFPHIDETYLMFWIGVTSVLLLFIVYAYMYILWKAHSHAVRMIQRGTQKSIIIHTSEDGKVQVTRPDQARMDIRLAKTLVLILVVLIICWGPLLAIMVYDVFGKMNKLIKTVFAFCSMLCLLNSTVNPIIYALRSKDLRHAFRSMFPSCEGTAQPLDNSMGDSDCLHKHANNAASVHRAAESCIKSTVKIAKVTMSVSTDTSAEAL

As a reminder, the IC50 is the point on the concentration scale where inhibition reaches its midpoint. Usually Emax stands for the greatest response seen or fitted, relative to the assay's reference. For `CCCCCN1C(=O)/C(=C/NC23CC4CC(CC(C4)C2)C3)C(=O)c2cc(OC)ccc21`, the IC50 at Cannabinoid receptor 1 [1] was > 10000 nM; at Cannabinoid receptor 2 [3], 81.7 nM. The Emax on Cannabinoid receptor 2 [2] worked out at 106%. The Ratio IC50 in the test with CHO [4] was > 122.

For the molecule `CCCCN1C(=O)/C(=C/NC2CCCCC2)C(=O)c2cc(OC)ccc21`, the values for the IC50 on Cannabinoid receptor 1 [1] and at Cannabinoid receptor 2 [3] were > 10000 nM and 4190 nM, respectively. Moreover, the Emax at Cannabinoid receptor 2 [2] turned out to be 99.7%. Moreover, the Ratio IC50 in the test on CHO [4] is > 2.39.

As for `CCCCCN1C(=O)/C(=C/NC23CC4CC(CC(C4)C2)C3)C(=O)c2cc(Cl)ccc21`, the values for the concentration for half-maximal inhibition (IC50) against Cannabinoid receptor 1 [1] and on Cannabinoid receptor 2 [3] were > 10000 nM and 957 nM, respectively. At Cannabinoid receptor 2 [2], the Emax was 100%. Moreover, the Ratio IC50 in the test on CHO [4] was > 10.4.

On to `CCCCCN1C(=O)/C(=C/NC2CCCCC2)C(=O)c2cc(OC)ccc21`, for which the IC50 against Cannabinoid receptor 1 [1] was > 10000 nM; on Cannabinoid receptor 2 [3], 1650 nM. Moreover, at Cannabinoid receptor 2 [2], the Emax worked out at 98.3%. Besides, the Ratio IC50 with CHO [4] was > 6.06.

`CCCCCN1C(=O)/C(=C/NC2CCCCC2)C(=O)c2cc(Cl)cc(C)c21`: the IC50 against Cannabinoid receptor 1 [1] is > 10000 nM; at Cannabinoid receptor 2 [3], 1480 nM. In addition, the Emax at Cannabinoid receptor 2 [2] was determined as 95%. In the test with CHO [4], the Ratio IC50 was > 6.76.

For the molecule `CCCCCN1C(=O)/C(=C/NC2CCCCC2)C(=O)c2cc(Br)ccc21`, the IC50 at Cannabinoid receptor 1 [1] was > 10000 nM; on Cannabinoid receptor 2 [3], 1680 nM. Moreover, the Emax on Cannabinoid receptor 2 [2] turned out to be 96.8%. For the same molecule, the Ratio IC50 in the test on CHO [4] was > 5.95.

`CCCCCN1C(=O)/C(=C/NC2CCCCC2)C(=O)c2ccc(C)cc21`: the 50% inhibitory concentration (IC50) against Cannabinoid receptor 1 [1] is > 10000 nM; on Cannabinoid receptor 2 [3] it was 9.03 nM. For the same molecule, the Emax at Cannabinoid receptor 2 [2] is 96.3%. For the same molecule, the Ratio IC50 in the test with CHO [4] is > 1110.

`CCCCCN1C(=O)/C(=C/NC23CC4CC(CC(C4)C2)C3)C(=O)c2cc(OC)cc(C)c21`: the IC50 is > 10000 nM on Cannabinoid receptor 1 [1] and 45.3 nM on Cannabinoid receptor 2 [3]. Besides, the Emax at Cannabinoid receptor 2 [2] stood at 102%. Also, the Ratio IC50 with CHO [4] is > 221.

On to `CCCCCN1C(=O)/C(=C/NC2CCCCC2)C(=O)c2ccc(OC)cc21`, for which the IC50 was > 10000 nM against Cannabinoid receptor 1 [1] and 194 nM on Cannabinoid receptor 2 [3]. Besides, the Emax on Cannabinoid receptor 2 [2] was 97.4%. For the same molecule, in the test with CHO [4], the Ratio IC50 is > 51.5.

The term EC50 denotes the concentration at which the effect is half-maximal. On to `CCCCN1C(=O)/C(=C/NC2CCCCC2)C(=O)c2cccc(C)c21`, for which the inhibition result in the test with Mus musculus [5] and in the test on Mus musculus [7] was “Active” throughout. The EC50 at Cannabinoid receptor 1 [6] was > 10000 nM; at Cannabinoid receptor 2 [9], 92.7 nM. Further, in the test with Mus musculus [8], the inhibition result is “Dose-dependent effect”. Also, in the test on CHO [10], the Ratio EC50 is > 108. Further, the Emax at Cannabinoid receptor 2 [11] came to 116%.

For the molecule `CCCCOc1c(OC)ccc2cc(C(=O)NCCc3ccc(N)cc3)c(=O)[nH]c12`, the IC50 on Cannabinoid receptor 1 [1] is > 10000 nM. The Emax on Cannabinoid receptor 2 [2] was 102%. In addition, the Ratio IC50 in the test on CHO [4] was > 18.3.

Turning to `CCCCCN1C(=O)/C(=C/NC2CCCCC2)C(=O)c2cc(Cl)ccc21`, the IC50 at Cannabinoid receptor 1 [1] is > 10000 nM; on Cannabinoid receptor 2 [3] it was 1510 nM. For the same molecule, the Emax on Cannabinoid receptor 2 [2] turned out to be 102%. Besides, the Ratio IC50 in the test on CHO [4] was > 6.62.

In the case of `Cc1c(C(=O)NN2CCCCC2)nn(-c2ccc(Cl)cc2Cl)c1-c1ccc(Cl)cc1`, on Cannabinoid receptor 2 [2], the Emax came out at 100%.

`CCCCCN1C(=O)/C(=C/NC2CCCCC2)C(=O)c2cc(OC)cc(C)c21`: the half-inhibitory concentration (IC50) on Cannabinoid receptor 1 [1] is > 10000 nM; at Cannabinoid receptor 2 [3] it was 93.3 nM. In addition, the Emax at Cannabinoid receptor 2 [2] came to 106%. For the same molecule, the Ratio IC50 in the test with CHO [4] is > 107.

Source of the values: ChEMBL document CHEMBL3588836, “Development of Quinoline-2,4(1H,3H)-diones as Potent and Selective Ligands of the Cannabinoid Type 2 Receptor” (J Med Chem, 2015).
